Values joined by “and” are separate entries in the source; they are usually repeats but may differ in a detail not shown here. Equal values may be shown once.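 Five compound concentrations were applied to cells in 96-well plates for 48 hours; endpoints were derived by simple linear interpolation of the resulting dose-response curve. GI50: concentration for 50% inhibition of growth. TGI marks complete inhibition of growth.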
What was measured:
Assay in all cases: NCI tumour cell line growth inhibition, 48 h
[1] = test system: MDA-MB-231 breast
[2] = test system: COLO 205 colon
[3] = test system: SK-MEL-5 melanoma
[4] = test system: BT-549 breast
[5] = test system: MDA-N
[6] = test system: MOLT-4 leukemia
[7] = test system: OVCAR-4 ovarian
[8] = test system: XF 498 CNS
[9] = test system: KM12 colon
[10] = test system: SN12K1 renal
[11] = test system: A549 NSCLC
[12] = test system: KM20L2 colon
[13] = test system: A498 renal
[14] = test system: IGROV1 ovarian
[15] = test system: MCF7 breast
[16] = test system: SF-295 CNS
[17] = test system: OVCAR-3 ovarian
[18] = test system: SK-MEL-28 melanoma
[19] = test system: SNB-78 CNS
[20] = test system: UACC-257 melanoma
[21] = test system: SK-OV-3 ovarian
[22] = test system: SF-268 CNS
[23] = test system: P388 leukemia
[24] = test system: LOX IMVI melanoma
[25] = test system: OVCAR-8 ovarian
[26] = test system: SNB-75 CNS
[27] = test system: NCI-H522 lung
[28] = test system: HT29 colon
[29] = test system: HOP-18 NSCLC
[30] = test system: SF-539 CNS
[31] = test system: NCI-H226 lung
[32] = test system: SK-MEL-2 melanoma
[33] = test system: NCI-H460 lung
[34] = test system: TK-10 renal
[35] = test system: SR leukemia
[36] = test system: PC-3 prostate
[37] = test system: SW-620 colon
[38] = test system: MALME-3M melanoma
[39] = test system: NCI-H23 lung
[40] = test system: UO-31 renal
[41] = test system: T-47D breast
[42] = test system: DLD-1 colon
[43] = test system: ACHN renal
[44] = test system: OVCAR-5 ovarian
[45] = test system: HOP-92 NSCLC
[46] = test system: CCRF-CEM leukemia
[47] = test system: HOP-62 NSCLC
[48] = test system: 786-0 renal
[49] = test system: SN12C renal
[50] = test system: HS 578T breast
[51] = test system: P388/ADR leukemia
[52] = test system: DMS 114 small cell lung
[53] = test system: NCI/ADR-RES ovarian
[54] = test system: UACC-62 melanoma
[55] = test system: HCT-116 colon
[56] = test system: RPMI-8226 leukemia
[57] = test system: RXF 393 renal
[58] = test system: HL-60(TB) leukemia
[59] = test system: CAKI-1 renal
[60] = test system: K-562 leukemia
[61] = test system: U251 CNS
[62] = test system: MDA-MB-435
[63] = test system: SNB-19 CNS
[64] = test system: HCT-15 colon
[65] = test system: HCC-2998 colon
[66] = test system: DU-145 prostate
[67] = test system: EKVX NSCLC
[68] = test system: LXFL 529 NSCLC
[69] = test system: M19-MEL melanoma
[70] = test system: RXF-631 renal
[71] = test system: DMS 273 small cell lung
[72] = test system: M14 melanoma

COc1cc(C2c3cc4c(cc3[C@@H](Nc3ccc(C#N)cc3)C3COC(=O)[C@H]23)OCO4)cc(OC)c1O (some centres not stated)
GI50 [1]: 3.34 µM | TGI [1]: 25.6 µM and > 100 µM | GI50 [2]: 1.98 µM and 1.38 µM | TGI [2]: 13 µM and 8.41 µM and 11.5 µM | GI50 [3]: 0.911 µM and 0.54 µM | TGI [3]: 4.68 µM and 2.68 µM and 2.06 µM | GI50 [4]: 1.71 µM | TGI [4]: 33.8 µM and 7.42 µM | TGI [5]: 18.7 µM and > 100 µM | GI50 [6]: 0.0307 µM | TGI [7]: 19.2 µM | TGI [8]: 22.8 µM | GI50 [9]: 1.13 µM and 1.61 µM | TGI [10]: 3.94 µM | GI50 [11]: 0.107 µM | TGI [11]: 6.1 µM and 2.35 µM and 2.96 µM | TGI [12]: 75 µM | TGI [13]: 11.4 µM | GI50 [14]: 1.76 µM | TGI [14]: 31.1 µM and 8.65 µM | GI50 [15]: 0.329 µM and 0.188 µM | TGI [15]: 40.4 µM and 75 µM and > 100 µM | GI50 [16]: 0.336 µM | TGI [16]: 8.74 µM and 3.65 µM | GI50 [17]: 1.81 µM and 2.14 µM | TGI [17]: 50 µM and 5.33 µM and 5.32 µM | GI50 [18]: 2.89 µM | TGI [18]: 28.2 µM and > 100 µM | TGI [19]: 75 µM | TGI [20]: 33.3 µM | GI50 [21]: 3.29 µM and 1.34 µM | TGI [21]: 48.8 µM and 11.3 µM and > 100 µM | GI50 [22]: 1.4 µM | TGI [22]: 42.5 µM and > 100 µM | TGI [23]: 0.832 µM | TGI [24]: 9.52 µM | GI50 [25]: 1.51 µM | GI50 [26]: 0.787 µM | TGI [26]: 42.6 µM and 56.3 µM | GI50 [27]: 1.44 µM and 1.55 µM | TGI [27]: 7.51 µM and 4.48 µM and 7.4 µM | GI50 [28]: 1.61 µM | TGI [28]: 11.6 µM and 14 µM | TGI [29]: 39.3 µM | GI50 [30]: 0.431 µM | TGI [30]: 11.3 µM and 3.64 µM | GI50 [31]: 0.239 µM and 0.242 µM | TGI [31]: 3.46 µM and 1.43 µM and 2.06 µM | GI50 [32]: 1.77 µM and 8.87 µM | GI50 [33]: 0.0174 µM and 0.0261 µM | GI50 [34]: 1.62 µM | TGI [34]: 17.4 µM and 4.49 µM | GI50 [35]: 0.468 µM | TGI [35]: 50 µM and > 100 µM | GI50 [36]: 2.81 µM | TGI [36]: 50 µM and > 100 µM | GI50 [37]: 0.781 µM and 0.263 µM | TGI [37]: 50 µM and 75 µM and 11.4 µM | GI50 [38]: 0.217 µM and 1.9 µM | TGI [38]: 9.66 µM and 2.69 µM and 17.2 µM | GI50 [39]: 0.753 µM and 0.532 µM | TGI [39]: 2.53 µM and 3.67 µM and 4.36 µM | GI50 [40]: 0.26 µM and 0.968 µM | TGI [40]: 7.14 µM and 5.42 µM and 2.64 µM | GI50 [41]: 0.46 µM | TGI [42]: 3.51 µM | GI50 [43]: 0.128 µM | TGI [43]: 1.24 µM and 2.41 µM | GI50 [44]: 2.96 µM and 3.3 µM | TGI [44]: 31.7 µM and 59.9 µM and > 100 µM | GI50 [45]: 0.685 µM | TGI [45]: 6.77 µM and 5.99 µM | GI50 [46]: 0.147 µM | GI50 [47]: 0.194 µM and 0.234 µM | TGI [47]: 2.82 µM and 0.59 µM and 2.57 µM | GI50 [48]: 0.112 µM | TGI [48]: 1.92 µM and 1.19 µM | GI50 [49]: 1.91 µM and 0.728 µM | GI50 [50]: 3.38 µM | TGI [50]: 29.1 µM and > 100 µM | TGI [51]: 2.11 µM | TGI [52]: 4.14 µM | GI50 [53]: 6.59 µM and 2.68 µM | TGI [53]: 11.6 µM and 41.3 µM and 21.2 µM | GI50 [54]: 0.783 µM | TGI [54]: 9.01 µM and 14.1 µM | GI50 [55]: 0.452 µM and 0.389 µM | TGI [55]: 10.8 µM and 2.45 µM and 11.4 µM | GI50 [56]: 0.869 µM and 1.33 µM | TGI [56]: 1.42 µM and 3.87 µM and 4.73 µM | GI50 [57]: 2.53 µM | TGI [57]: 4.96 µM and 9.01 µM | TGI [58]: 1.12 µM and 0.702 µM | GI50 [59]: 0.228 µM | TGI [59]: 4.37 µM and 2.52 µM | GI50 [60]: 0.987 µM and 1.85 µM | GI50 [61]: 0.879 µM | GI50 [62]: 1.98 µM | TGI [62]: 50 µM and > 100 µM | GI50 [63]: 0.314 µM and 0.768 µM | TGI [64]: 18 µM | GI50 [65]: 1.02 µM | TGI [65]: 5.11 µM and 2.11 µM | TGI [66]: 1.17 µM and 6.87 µM | GI50 [67]: 2.21 µM and 3.71 µM | TGI [67]: 50 µM and 12.8 µM and > 100 µM

COCCN1C2=CCCCC2=Nc2c1nc(N)[nH]c2=O
TGI [2]: > 100 µM | TGI [3]: > 100 µM | TGI [6]: > 100 µM | TGI [68]: > 100 µM | TGI [8]: > 100 µM | TGI [9]: > 100 µM | TGI [11]: > 100 µM | TGI [12]: > 100 µM | TGI [13]: > 100 µM | TGI [14]: > 100 µM | TGI [16]: > 100 µM | TGI [17]: > 100 µM | TGI [18]: > 100 µM | TGI [19]: > 100 µM | TGI [20]: > 100 µM | TGI [21]: > 100 µM | TGI [22]: > 100 µM | TGI [24]: > 100 µM | TGI [25]: > 100 µM | TGI [26]: > 100 µM | TGI [27]: > 100 µM | TGI [28]: > 100 µM | TGI [29]: > 100 µM | TGI [30]: > 100 µM | TGI [31]: > 100 µM | TGI [33]: > 100 µM | TGI [34]: > 100 µM | TGI [35]: > 100 µM | TGI [38]: > 100 µM | TGI [39]: > 100 µM | TGI [40]: > 100 µM | TGI [69]: > 100 µM | TGI [70]: > 100 µM | TGI [42]: > 100 µM | TGI [43]: > 100 µM | TGI [44]: > 100 µM | TGI [45]: > 100 µM | TGI [46]: > 100 µM | TGI [47]: > 100 µM | TGI [71]: > 100 µM | TGI [48]: > 100 µM | TGI [49]: > 100 µM | TGI [72]: > 100 µM | TGI [52]: > 100 µM | TGI [54]: > 100 µM | TGI [55]: > 100 µM | TGI [56]: > 100 µM | TGI [57]: > 100 µM | TGI [58]: > 100 µM | TGI [59]: > 100 µM | TGI [60]: > 100 µM | TGI [61]: > 100 µM | TGI [63]: > 100 µM | TGI [64]: > 100 µM | TGI [65]: > 100 µM | TGI [67]: > 100 µM

From PubChem BioAssay (NCI)
